Several values for one entry are separate records, joined by “and”; a condition that tells them apart may be missing. Equal values may be shown once. Read-outs that look alike come from different tables or passages of the source.
Assays:
[1] = In vivo pharmacokinetic studies in rats; design: species or system SD rats; conditions: rats; for AUC: SD; for AUC(0-t): read-out: AUClast; for Tmax at 1 day: read-out: Tmax
Experimental: This example describes pharmacokinetic (PK) studies of ARI-164, ARI-165, ARI-186, ARI-224, and ARI-226 in mice and rats. In the present studies, the test compounds were given to groups of mice and/or rats (N=3 in each group), intravenously (IV) at 2 mg/kg or orally (PO) at 10, 30, or 40 mg/kg. ARI-186, ARI-224 and ARI-226 were given orally to rats QD for 5 days at 10 mg/kg to assess whether decreased susceptibility to CYP1A1/1A2 metabolism would lead to increased accumulation. IV doses were formulated in DMSO, while PO doses were formulated in a 50/50 mixture of PEG400 and Tween 80 (single dose mouse and rat studies for ARI-164, ARI-165, ARI-186, ARI-224, ARI-226) or PEG400/Kolliphor HS15/Oleic Acid 45/45/10 (ARI-164 repeat dose rat study). Blood samples were collected at pre-dose and over a period of 24 hours post-dose. Plasma concentrations of the test compounds were determined by HPLC.

Pan02 cancer cells = assay: Pan02 subcutaneous syngeneic mouse tumor model (Example 48); type: in vivo, C57BL/6 mice; conditions: for TGI: 20 mg/kg, IP
Experimental: This example describes in vivo studies that evaluated the anti-cancer efficacy of ARI-143, ARI-164, ARI-165, and ARI-186 in syngeneic mouse tumor models. Mice implanted subcutaneously with EMT-6 or Pan02 cancer cells were treated with ARI-143, ARI-164, ARI-165, ARI-186, or vehicle controls, as described below.
A monolayer culture of tumor cells was maintained in vitro in DMEM or RPMI1640 medium supplemented with 10% fetal bovine serum at 37° C. in an atmosphere of 5% CO2. Cells in exponential growth phase were harvested and quantitated by cell counter before tumor inoculation. The cell lines used are described in the table below.
Two subcutaneous syngeneic mouse tumor models were generated by innoculating female BALB/C or C57BL/6 mice with cancer cells at their right lower or front flank as detailed in the table below:
Each mouse was inoculated subcutaneously with tumor cells in 0.1 mL of PBS. Treatments were started when the mean tumor size reached approximately 80-120 mm^3 (around 100 mm^3). The administration of the test compounds and the animal number in each study group are shown in the study design. The date of tumor cell inoculation was denoted as day 0.
ARI-143, ARI-164, and ARI-165 were dissolved in DMSO at the final concentration of 26.7 mg/ml and stored at room temperature. In Pan02 studies of ARI-164 and ARI-186, both compounds were dissolved in 100% PEG400.
Randomization of animals was started when the mean tumor size reached approximately 90 mm^3 to form the mouse study groups. The randomization was-performed based on “Matched distribution” method using the multi-task method (StudyDirector™ software, version 3.1.399.19)/randomized block design. […]
After tumor cell inoculation, the mice were checked daily for morbidity and mortality. During routine monitoring, the mice were checked for tumor growth and any effects of the treatment on behavior such as mobility, food and water consumption, body weight gain/loss (body weights were measured twice per week after randomization), eye/hair matting, and any other abnormalities. Mortality and observed clinical signs were recorded for individual mice in detail.
Tumor volumes were measured twice per week in two dimensions using a caliper, and the volume was expressed in mm^3 using the formula: V=(L×W×W)/2, where V is tumor volume, L is tumor length (the longest tumor dimension) and W is tumor width (the longest tumor dimension perpendicular to L). Dosing as well as tumor and body weight measurements was conducted in a Laminar Flow Cabinet. The body weights and tumor volumes were measured by using StudyDirector™ software (version 3.1.399.19). Dosing Holiday
Tumor growth inhibition percentage (TGI %) is an indicator for antitumor activity of a drug compound, and expressed as: TGI(%)=100×(1−T/C), where T and C are the mean tumor volume (or weight) of the treated and control groups, respectively, on a given day. Statistical analysis of the difference in mean tumor volume (MTV) among the groups was conducted using the data collected on the day when the MTV of the vehicle group reached the humane endpoints, so that TGI could be derived for all or most mice enrolled in the study.

[2] = Sprague-Dawley (SD), rat, plasma, po, 10 mg/kg, repeat 10 mg/kg PO QD, Day 1, Mean of 3 animals
[3] = Sprague-Dawley, rat, plasma, po, 10 mg/kg, repeat 10 mg/kg PO QD, Day 1, individual animal
[4] = Sprague-Dawley, rat, plasma, po, 10 mg/kg, repeat 10 mg/kg PO QD, Day 5, Mean
[5] = Sprague-Dawley, rat, plasma, po, 10 mg/kg, repeat 10 mg/kg PO QD, Day 5, individual animal
[6] = repeat 10 mg/kg PO QD, Day 1, individual animal
[7] = repeat 10 mg/kg PO QD, Day 5, individual animal

Work on `CC[C@H](N)c1csc(C(=O)c2c[nH]c3cc(F)ccc23)n1` [ARI-186, (S)-(4-(1-aminopropyl)thiazol-2-yl)(6-fluoro-1H-indol-3-yl)methanone] yielded an AUC ([1]; rat, plasma, po, 10 mg/kg, repeat oral dosing 10 mg/kg QD, read-out: AUC on day 1) of 5940 ng·h/mL, an AUC ([1]; rat, plasma, po, 10 mg/kg, repeat oral dosing 10 mg/kg QD, read-out: AUC on day 5) of 29100 ng·h/mL and an AUC(0-inf) [1, 2] of 6480 ng·h/mL. It also gave a Cmax at 1 day [1, 2] of 399 ng/mL, an MRT inf at 1 day [1, 2] of 10.1 h and an MRT last at 1 day [1, 2] of 8.06 h. For the same molecule, the half-life at 1 day [1, 2] was 6.04 h, the AUC(0-t) [1, 2] was 5940 ng·h/mL and the Tmax at 1 day [1, 2] was 6.67 h. The AUC(0-t) ([1]; Sprague-Dawley (SD), rat, plasma, po, 10 mg/kg, repeat 10 mg/kg PO QD, Day 5, individual animal) was 33600 ng·h/mL, the AUC(0-inf) [1, 3] was 6920 ng·h/mL and the Cmax at 1 day [1, 3] was 397 ng/mL. The MRT inf at 1 day [1, 3] was 10.5 h, the MRT last at 1 day [1, 3] was 8.14 h and the half-life at 1 day [1, 3] was 6.44 h. It also gave an AUC(0-t) [1, 3] of 6260 ng·h/mL, a Tmax at 1 day [1, 3] of 8 h and a Cmax at 5 day [1, 4] of 1580 ng/mL. It also gave an MRT last at 5 day [1, 4] of 11.5 h, a Tmax at 5 day [1, 4] of 4.67 h and an AUC(0-t) [1, 4] of 29100 ng·h/mL. For the same molecule, the Cmax at 5 day [1, 5] was 1610 ng/mL, the MRT last at 5 day [1, 5] was 11.6 h and the “behaviour of exposure after 5 days of repeat dosing (in words)” value ([1]; 10 mg/kg PO QD for 5 days) was “accumulation towards steady state”. For the same molecule, the AUCinf [1, 6] was 6000 ng·h/mL and 6510 ng·h/mL, the AUClast [1, 6] was 5400 ng·h/mL and 6150 ng·h/mL and the Cmax [1, 6] was 359 ng/mL and 441 ng/mL. For the same molecule, the MRTinf [1, 6] was 10.9 h and 8.93 h, the MRTlast [1, 6] was 8.40 h and 7.63 h and the T1/2 [1, 6] was 6.45 h and 5.22 h. For the same molecule, the Tmax [1, 6] was 4 h, the AUClast [1, 7] was 24600 ng·h/mL and the Cmax [1, 7] was 1310 ng/mL and 1810 ng/mL. The MRTlast [1, 7] was 11.4 h, the Tmax [1, 7] was 4 h and the “accumulation (AUC day 5 vs day 1)” value ([1]; repeat oral dosing 10 mg/kg QD) was 4.9 ×. For the same molecule, the TGI (Pan02 cancer cells; study day 0) was −2.0%, the TGI (Pan02 cancer cells; study day 4) was −13.0% and the TGI (Pan02 cancer cells; study day 7) was −0.3%. For the same molecule, the TGI (Pan02 cancer cells; study day 11) was 27.0%, the TGI (Pan02 cancer cells; study day 14) was 49.5% and the TGI (Pan02 cancer cells; study day 18) was 61.9%. For the same molecule, the “tumor inhibition versus vehicle” value (Pan02 cancer cells; Pan02 tumors, 20 mpk i.p. QD, study day 18) was 62%.
